Results reported in ChEMBL document CHEMBL1201862, “PubChem BioAssay data set” (2004).
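Growth conditions: 96-well plates. Treatment: test compound, 48 hours, 5 concentrations. Analysis: linear interpolation between bracketing concentrations; unreached endpoints set to highest concentration. Here, GI50 denotes the concentration required for 50% inhibition of growth.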 The source made the active and inactive calls. No stated cut-off is given here; in the data, active = GI50 up to about 1.1 µM and inactive = higher.

Legend:
Assay in all cases: NCI-60 cell line screen, 48 h
RPMI-8226 = system: RPMI-8226
MDA-N = system: MDA-N
PC-3 = system: PC-3
NCI-H23 = system: NCI-H23
CAKI-1 = system: CAKI-1
NCI-H522 = system: NCI-H522
HCC 2998 = system: HCC 2998
OVCAR-5 = system: OVCAR-5
BT-549 = system: BT-549
MDA-MB-435 = system: MDA-MB-435
M14 = system: M14
NCI-H460 = system: NCI-H460
IGROV-1 = system: IGROV-1
HL-60 = system: HL-60
SF-295 = system: SF-295
SK-OV-3 = system: SK-OV-3
ACHN = system: ACHN
TK-10 = system: TK-10
CCRF-CEM = system: CCRF-CEM
SNB-75 = system: SNB-75

Row | SMILES | GI50 (RPMI-8226) | GI50 (MDA-N) | GI50 (PC-3) | GI50 (NCI-H23) | GI50 (CAKI-1) | GI50 (NCI-H522) | GI50 (HCC 2998) | GI50 (OVCAR-5) | GI50 (BT-549) | GI50 (MDA-MB-435) | GI50 (M14) | GI50 (NCI-H460) | GI50 (IGROV-1) | GI50 (HL-60) | GI50 (SF-295) | GI50 (SK-OV-3) | GI50 (ACHN) | GI50 (TK-10) | GI50 (CCRF-CEM) | GI50 (SNB-75)
1 | Nc1ccn(C2OC(CO)C(O)C2(F)F)c(=O)n1 (stereo not drawn) | 0.281 µM (active) | 0.237 µM (active) | 0.885 µM (active) | 0.0391 µM (active) | 0.108 µM (active) | 0.318 µM (active) | 0.728 µM (active) | 0.547 µM (active) | 0.33 µM (active) | 0.384 µM (active) | 0.0313 µM (active) | 0.0504 µM (active) | 0.301 µM (active) | 0.0249 µM (active) | 0.254 µM (active) | 0.667 µM (active) |  |  |  | 
2 | OCC1OC(n2cnc3cccnc32)CC1O (stereo not drawn) |  | > 100 µM (inactive) | > 100 µM (inactive) | > 100 µM (inactive) | > 100 µM (inactive) | > 100 µM (inactive) | > 100 µM (inactive) | > 100 µM (inactive) | > 100 µM (inactive) | > 100 µM (inactive) | > 100 µM (inactive) | > 100 µM (inactive) | > 100 µM (inactive) | > 100 µM (inactive) | > 100 µM (inactive) |  | > 100 µM (inactive) | > 100 µM (inactive) | > 100 µM (inactive) | 7.76 µM (inactive)
3 | C=C1C(=O)OC2CC(=C)C3CC=C(C)C3CC12 (stereo not drawn) | 14.2 µM (inactive) | 16.4 µM (inactive) | 14.9 µM (inactive) |  | 15 µM (inactive) | 14.4 µM (inactive) | 21.1 µM (inactive) | 46.7 µM (inactive) | 14.7 µM (inactive) | 15.7 µM (inactive) | 18 µM (inactive) | 28.8 µM (inactive) | 18 µM (inactive) | 18.3 µM (inactive) | 32.4 µM (inactive) | 30.7 µM (inactive) | 18.7 µM (inactive) | 18 µM (inactive) | 8.24 µM (inactive) | 
4 | COc1ccc(C(=O)/C=C/c2ccc(O)c(O)c2F)c(OC)c1 | 1.85 µM (inactive) | 3.23 µM (inactive) | 3.14 µM (inactive) | 2.43 µM (inactive) | 3.24 µM (inactive) | 0.327 µM (active) | 4.07 µM (inactive) | 10.7 µM (inactive) | 5.38 µM (inactive) | 3.58 µM (inactive) | 7.71 µM (inactive) | 2.75 µM (inactive) | 9.98 µM (inactive) |  | 5.41 µM (inactive) | 9.27 µM (inactive) | 3.01 µM (inactive) | 9.18 µM (inactive) | 0.44 µM (active) | 7.52 µM (inactive)
5 | CC(=O)OCCCOCn1c(Cc2ccccc2)c(C)c(=O)[nH]c1=O | > 100 µM (inactive) | > 100 µM (inactive) | > 100 µM (inactive) | > 100 µM (inactive) | > 100 µM (inactive) | > 100 µM (inactive) | > 100 µM (inactive) | > 100 µM (inactive) | > 100 µM (inactive) | > 100 µM (inactive) | > 100 µM (inactive) | > 100 µM (inactive) | > 100 µM (inactive) |  | > 100 µM (inactive) | > 100 µM (inactive) | > 100 µM (inactive) | > 100 µM (inactive) | > 100 µM (inactive) | > 100 µM (inactive)
6 | CCOC(=O)c1nc2ccccc2nc1Nc1ccc(C(=O)OC)s1 | > 100 µM (inactive) | > 100 µM (inactive) | > 100 µM (inactive) | > 100 µM (inactive) | > 100 µM (inactive) | 47.4 µM (inactive) | > 100 µM (inactive) | > 100 µM (inactive) | > 100 µM (inactive) | > 100 µM (inactive) | > 100 µM (inactive) | > 100 µM (inactive) | > 100 µM (inactive) | > 100 µM (inactive) | > 100 µM (inactive) |  | > 100 µM (inactive) | > 100 µM (inactive) | > 100 µM (inactive) | > 100 µM (inactive)
7 | CC(C)(C)OC(=O)NC(Cc1ccc(OCc2ccccc2)cn1)C(=O)N1CCCC1 (stereo not drawn) | 54.6 µM (inactive) | 55.8 µM (inactive) | 33.4 µM (inactive) | 45.7 µM (inactive) | > 100 µM (inactive) | 35.3 µM (inactive) | > 100 µM (inactive) | > 100 µM (inactive) | 31.1 µM (inactive) | 53.7 µM (inactive) | > 100 µM (inactive) | 78 µM (inactive) | > 100 µM (inactive) | 49.1 µM (inactive) | 30.1 µM (inactive) |  | > 100 µM (inactive) | > 100 µM (inactive) | 44.8 µM (inactive) | 77.3 µM (inactive)
8 | Cc1cc(O)nc(/N=C(\N)Nc2ccc(Cl)cc2)n1 | > 100 µM (inactive) | > 100 µM (inactive) | > 100 µM (inactive) | > 100 µM (inactive) | > 100 µM (inactive) | > 100 µM (inactive) | > 100 µM (inactive) | > 100 µM (inactive) | > 100 µM (inactive) | > 100 µM (inactive) | > 100 µM (inactive) | > 100 µM (inactive) | > 100 µM (inactive) | > 100 µM (inactive) | > 100 µM (inactive) |  | > 100 µM (inactive) | > 100 µM (inactive) | > 100 µM (inactive) | 
9 | CN1C(=O)CN(NC(=O)C2=C(O)c3ccc(Br)cc3S(=O)(=O)N2)C1=S | > 100 µM (inactive) | 45.3 µM (inactive) | > 100 µM (inactive) | > 100 µM (inactive) | > 100 µM (inactive) | 75.7 µM (inactive) | > 100 µM (inactive) | > 100 µM (inactive) | > 100 µM (inactive) | > 100 µM (inactive) | > 100 µM (inactive) | > 100 µM (inactive) | > 100 µM (inactive) | 33 µM (inactive) | > 100 µM (inactive) | > 100 µM (inactive) | > 100 µM (inactive) | > 100 µM (inactive) | 19.2 µM (inactive) | 
10 | CC1=NN(c2nc(N)nc(/C(C#N)=C\c3ccc([N+](=O)[O-])s3)n2)C(C)(C)C1 | 0.0218 µM (active) | 0.34 µM (active) | 0.165 µM (active) | 0.76 µM (active) | 1.16 µM (inactive) | 0.101 µM (active) | 1.41 µM (inactive) | 3.46 µM (inactive) | 0.701 µM (active) | 0.233 µM (active) | 0.298 µM (active) | 0.209 µM (active) | 0.284 µM (active) |  | 2.96 µM (inactive) | 8.99 µM (inactive) | 0.261 µM (active) | 0.507 µM (active) | 0.0175 µM (active) | 0.764 µM (active)
11 | CC(=O)OC1C[C@@H](C)C2(CC(c3ccoc3)OC2=O)C2CCC(O)C3(CO3)C12CO (stereo partly drawn) | > 100 µM (inactive) | > 100 µM (inactive) | > 100 µM (inactive) | > 100 µM (inactive) | > 100 µM (inactive) | > 100 µM (inactive) | > 100 µM (inactive) | > 100 µM (inactive) | > 100 µM (inactive) | > 100 µM (inactive) | > 100 µM (inactive) | > 100 µM (inactive) | > 100 µM (inactive) | > 100 µM (inactive) | > 100 µM (inactive) |  | > 100 µM (inactive) | > 100 µM (inactive) | > 100 µM (inactive) | > 100 µM (inactive)
